Earlier results on one compound are cited in patent US6844014B1, “Herbal healing lotion for veterinary use” (priority 2002, dated 2005).

For this series the following is noted: treatment by previous veterinarian before the office visit.

Take `C[C@]12CCC(=O)C=C1CC[C@@H]1[C@@H]2C(=O)C[C@@]2(C)[C@H]1CC[C@]2(O)C(=O)CO` [cortisone]: the “result of previous treatment of the lesion” value was “no positive result was obtained”.
